The subject of one series is Helicobacter pylori. As to the kind of experiment: Activity against Helicobacter pylori, agar dilution (method of Iwahi et al.), Columbia agar, 4 days growth. The note with it: Columbia agar (Oxoid), growth period of 4 days, approximate values; for MIC50: 96 h, read-out: Appr. MIC 50. The format is cell-based. The text has this: The compounds of the formula I were investigated with respect to their activity against Helicobacter pylori following the method described by Tomoyuki Iwahi et al. (Antimicrobial Agents and Chemotherapy, 1991, 490-496) using Columbia agar (Oxoid) and a growth period of 4 days.

Results on 32 compounds are retold here after patent US6479514B1, “Quinoline-aminomethyl-pyridyl derivatives with anti-helicobacter activity” (Altana Pharma AG, priority 1998, dated 2002).

Some results are limits rather than exact numbers.

`Cc1c(SCCCSCC2CN(C)C(=O)O2)ccnc1CNc1cnc2ccccc2c1` (stereo not drawn) [Compound 1, 3-Methyl-5-{3-[3-methyl-2-(quinolin-3-ylaminomethyl)pyridin4-ylsulfanyl]propylsulfanylmethyl}oxazolidin-2-one]: the melting point lay within 98 to 100 °C. In addition, the MIC50 in the series with Helicobacter pylori was ≤ 0.1 µg/mL.

Consider `Cc1c(SCCCSc2ncccn2)ccnc1CNc1cnc2ccccc2c1` [Compound 2, {3-Methyl4-[3-(pyrimidin-2-ylsulfanyl)propylsulfanyl]pyridin-2-ylmethyl}quinolin-3-ylamine], for which, in the series on Helicobacter pylori, the MIC50 was ≤ 0.1 µg/mL.

With `Cc1c(SCCCN2CCNCC2)ccnc1CNc1cnc2ccccc2c1` [Compound 4, [3-Methyl-4-(3-piperazin-1-ylpropylsulfanyl)pyridin-2-ylmethyl]quinolin-3-ylamine], the melting point lay in the range of 105 to 108 °C.

As to `Cc1c(OCCCCSCc2ccncc2)ccnc1CNc1cnc2ccccc2c1` [Compound 6, {3-Methyl-4-[4-(pyridin4-ylmethylsulfanyl)butoxy]pyridin-2-ylmethyl}quinolin3-ylamine], the MIC50 with Helicobacter pylori is ≤ 0.1 µg/mL.

`Cc1c(OCCCCSCCn2c([N+](=O)[O-])cnc2C)ccnc1CNc1cnc2ccccc2c1` [Compound 7, (3-Methyl-4-{4-[2-(2-methyl-5-nitroimidazol-1-yl)ethylsulfanyl]butoxy}pyridin-2-ylmethyl)-quinolin-3-ylamine] showed a melting point of 154 to 158 °C. In the series with Helicobacter pylori, the MIC50 was ≤ 0.1 µg/mL.

For `Cc1c(SCCSCc2ccncc2)ccnc1CNc1cnc2ccccc2c1` [Compound 8, {3-Methyl-4-[2-(pyridin-4-ylmethylsulfanyl)ethylsulfanyl]pyridin-2-ylmethyl}quinolin-3-ylamine], in the series on Helicobacter pylori, the MIC50 was ≤ 0.1 µg/mL.

With `Cc1c(SCCSCCn2c([N+](=O)[O-])cnc2C)ccnc1CNc1cnc2ccccc2c1` [Compound 9, (3-Methyl-4-{2-[2-(2-methyl-5-nitroimidazol-1-yl)ethylsulfanyl]ethylsulfanyl}pyridin-2-ylmethyl)quinolin-3-ylamine], the melting point fell in the range of 152 to 154 °C. Further, in the series on Helicobacter pylori, the MIC50 was ≤ 0.1 µg/mL.

For the compound `Cc1c(SCCCN2CCN(Cc3ccncc3)CC2)ccnc1CNc1cnc2ccccc2c1` [Compound 10, {3-Methyl-4-[3-(4-pyridin-4-ylmethylpiperazin-1-yl)propylsulfanyl]pyridin-2-ylmethyl}-quinolin-3-ylamine], the MIC50 with Helicobacter pylori is ≤ 0.1 µg/mL.

As for `Cc1c(SCCCSCC2CCCN(C)C2)ccnc1CNc1cnc2ccccc2c1.O=C(O)C(=O)O` (stereo not drawn) [Compound 11, {3-Methyl-4-[3-(1-methylpiperidin-3-ylmethylsulfanyl)propylsulfanyl]pyridin-2-ylmethyl}-quinolin-3-ylamine oxalate], the MIC50 with Helicobacter pylori is ≤ 0.1 µg/mL.

Regarding `Cc1c(SCCCSCc2ccncc2)ccnc1CNc1cnc2ccccc2c1` [Compound 12, {3-Methyl-4-[3-(pyridin-4-ylmethylsulfanyl)propylsulfanyl]pyridin-2-ylmethyl}quinolin-3-ylamine], the MIC50 in the series with Helicobacter pylori is ≤ 0.1 µg/mL.

As for `Cc1c(SCCCCSCCn2c([N+](=O)[O-])cnc2C)ccnc1CNc1cnc2ccccc2c1` [Compound 13, (3-Methyl-4-{4-[2-(2-methyl-5-nitroimidazol-1-yl)ethylsulfanylbutyl]sulfanyl}pyridin-2-yl-methyl)quinolin-3-ylamine], in the series with Helicobacter pylori, the “Appr. MIC 50” value is given as “≦0.1 μg/ml”.

Turning to `Cc1c(SCCCSCc2ccc(Cl)s2)ccnc1CNc1cnc2ccccc2c1` [Compound 14, {4-[3-(5-Chlorothiophen-2-ylmethylsulfanyl)propylsulfanyl]-3-methylpyridin-2-ylmethyl}-quinolin-3-ylamine], the MIC50 in the series with Helicobacter pylori was ≤ 0.1 µg/mL.

In turn, `Cc1c(SCCCSCCn2c([N+](=O)[O-])cnc2C)ccnc1CNc1cnc2ccccc2c1` [Compound 15, (3-Methyl-4-{3-[2-(2-methyl-5-nitroimidazol-1-yl)ethylsulfanyl]propylsulfanyl}-pyridin-2-ylmethyl)quinolin-3-ylamine] registered a melting point of 133 to 135 °C. The MIC50 in the series on Helicobacter pylori was ≤ 0.1 µg/mL.

As to `Cc1c(OCCCCSc2ncccn2)ccnc1CNc1cnc2ccccc2c1` [Compound 16, {3-Methyl-4-[4-(pyrimidin-2-ylsulfanyl)-butoxy]-pyridin-2-ylmethyl}-quinolin-3-yl-amine], the MIC50 with Helicobacter pylori is ≤ 0.1 µg/mL.

Compound `Cc1c(SCCCSCC2CN(C(C)C)C(=O)O2)ccnc1CNc1cnc2ccccc2c1` (stereo not drawn) [Compound 17, 3-Isopropyl-5-{3-[3-methyl-2-(quinolin-3-ylaminomethyl)-pyridin-4-ylsulfanyl]-propylsulfanylmethyl}-oxazolidin-2-one] had a melting point of 100 to 104 °C. Further, the MIC50 with Helicobacter pylori was ≤ 0.1 µg/mL.

For the compound `Cc1c(SCCCSCCCn2cc([N+](=O)[O-])nc2C)ccnc1CNc1cnc2ccccc2c1` [Compound 18, (3-Methyl-4-{3-[3-(2-methyl-4-nitro-imidazol-1-yl)-propylsulfanyl]-propylsulfanyl}-pyridin-2-ylmethyl)-quinolin-3-yl-amine], the melting point fell in the range of 95 to 99 °C. Besides, the MIC50 in the series with Helicobacter pylori was ≤ 0.1 µg/mL.

Turning to `Cc1c(SCCCSCC2CN(CC3CC3)C(=O)O2)ccnc1CNc1cnc2ccccc2c1` (stereo not drawn) [Compound 19, 3-Cyclopropylmethyl-5-{3-[3-methyl-2-(quinolin-3-ylaminomethyl)-pyridin-4ylsulfanyl]-propylsulfanylmethyl}-oxazolidin-2-one], the melting point lay in the range of 78 to 81 °C. Also, in the series with Helicobacter pylori, the MIC50 is ≤ 0.1 µg/mL.

As to `Cc1c(OCCCCSCC2CCCN(C)C2)ccnc1CNc1cnc2ccccc2c1` (stereo not drawn) [Compound 20, {3-Methyl-4-[4-(1-methyl-piperidin-3-ylmethylsulfanyl)-butoxy]-pyridin-2-ylmethyl}-quinolin-3-yl-amine], in the series on Helicobacter pylori, the MIC50 was ≤ 0.1 µg/mL.

For the compound `Cc1c(OCCSCc2ccncc2)ccnc1CNc1cnc2ccccc2c1` [Compound 21, {3-Methyl-4-[2-(pyridin-4-ylmethylsulfanyl)-ethoxy]-pyridin-2-ylmethyl}-quinolin-3-yl-amine], the MIC50 in the series on Helicobacter pylori was ≤ 0.1 µg/mL.

In the case of `Cc1c(OCCSCCn2c([N+](=O)[O-])cnc2C)ccnc1CNc1cnc2ccccc2c1` [Compound 22, (3-Methyl-4-{2-[2-(2-methyl-5-nitro-imidazol-1-yl)-ethylsulfanyl]-ethoxy}-pyridin-2-ylmethyl)-quinolin-3-yl-amine], the melting point lay within 152 to 155 °C. Further, in the series with Helicobacter pylori, the MIC50 was ≤ 0.1 µg/mL.

As for `Cc1c(OCCCSCCn2c([N+](=O)[O-])cnc2C)ccnc1CNc1cnc2ccccc2c1` [Compound 23, (3-Methyl-4-{3-[2-(2-methyl-5-nitro-imidazol-1-yl)-ethylsulfanyl]-propoxy}-pyridin-2-ylmethyl)-quinolin-3-yl-amine], the melting point is 138 to 141 °C. Besides, the MIC50 in the series with Helicobacter pylori is ≤ 0.1 µg/mL.

For `Cc1c(OCCCSCc2ccncc2)ccnc1CNc1cnc2ccccc2c1` [Compound 24, {3-Methyl-4-[3-(pyridin-4-ylmethylsulfanyl)-propoxy]-pyridin-2-ylmethyl}-quinolin-3-yl-amine], in the series on Helicobacter pylori, the MIC50 is ≤ 0.1 µg/mL.

Compound `Cc1c(SCCCSCCO)ccnc1CNc1cnc2ccccc2c1` [Compound 25, 2-{3-[3-Methyl-2-(quinolin-3-ylaminomethyl)-pyridin-4-ylsulfanyl]-propylsulfanyl}-ethanol] registered a melting point of 125 to 126 °C. Besides, the MIC50 in the series on Helicobacter pylori was ≤ 0.1 µg/mL.

Compound `Cc1c(OCCCCSCCO)ccnc1CNc1cnc2ccccc2c1` [Compound 26, 2-{4-[3-Methyl-2-(quinolin3-ylaminomethyl)-pyridin-4-yloxy]-butylsulfanyl}-ethanol] returned a melting point of 119 to 120 °C. The MIC50 in the series with Helicobacter pylori was ≤ 0.1 µg/mL.

For `Cc1c(SCCCN2CCN(CC3CN(Cc4ccncc4)C(=O)O3)CC2)ccnc1CNc1cnc2ccccc2c1` (stereo not drawn) [Compound 27, 5-(4-{3-[3-Methyl-2-(quinolin-3-ylaminomethyl)-pyridin-4-ylsulfanyl]-propyl}-piperazin-1-ylmethyl)-3-pyridin-4-ylmethyl-oxazolidin-2-one], the MIC50 in the series with Helicobacter pylori was ≤ 0.1 µg/mL.

With `Cc1c(OCCOCCSCc2ccncc2)ccnc1CNc1cnc2ccccc2c1` [Compound 28, (3-Methyl-4-{2-[2-(pyridin-4-ylmethylsulfanyl)-ethoxy]-ethoxy}-pyridin-2-ylmethyl)-quinolin-3-yl-amine], the MIC50 in the series on Helicobacter pylori was ≤ 0.1 µg/mL.

With `Cc1c(SCCCSCc2ccccn2)ccnc1CNc1cnc2ccccc2c1` [Compound 29, {3-Methyl-4-[3-(pyridin-2-ylmethylsulfanyl)-propylsulfanyl]-pyridin-2-ylmethyl}-quinolin-3-yl-amine], in the series on Helicobacter pylori, the MIC50 is ≤ 0.1 µg/mL.

`Cc1c(OCCOCCSCc2cccnc2)ccnc1CNc1cnc2ccccc2c1` [Compound 30, (3-Methyl-4-{2-[2-(pyridin-3-ylmethylsulfanyl)-ethoxy]-ethoxy}-pyridin-2-ylmethyl)-quinolin-3-yl-amine] displayed a melting point of 84 to 86 °C. For the same compound, in the series with Helicobacter pylori, the MIC50 is ≤ 0.1 µg/mL.

In the case of `Cc1c(OCCOCCSCc2ccccn2)ccnc1CNc1cnc2ccccc2c1` [Compound 31, (3-Methyl-4-{2-[2-(pyridin-2-ylmethylsulfanyl)-ethoxy]-ethoxy}-pyridin-2-ylmethyl)-quinolin-3-yl-amine], the melting point fell in the range of 65 to 67 °C. In addition, the MIC50 with Helicobacter pylori was ≤ 0.1 µg/mL.

On to `Cc1c(OCCSCc2cccnc2)ccnc1CNc1cnc2ccccc2c1` [Compound 33, {3-Methyl-4-[2-(pyridin-3-ylmethylsulfanyl)-ethoxy]-pyridin-2-ylmethyl}-quinolin-3-yl-amine], for which, in the series on Helicobacter pylori, the MIC50 was ≤ 0.1 µg/mL.

In the case of `Cc1c(OCCSCc2ccccn2)ccnc1CNc1cnc2ccccc2c1` [Compound 34, {3-Methyl-4-[2-(pyridin-2-ylmethylsulfanyl)-ethoxy]-pyridin-2-ylmethyl}-quinolin-3-yl-amine], the MIC50 in the series on Helicobacter pylori is ≤ 0.1 µg/mL.

For the compound `Cc1c(SCCSCc2cccnc2)ccnc1CNc1cnc2ccccc2c1` [Compound 35, {3-Methyl-4-[2-(pyridin-3-ylmethylsulfanyl)-ethylsulfanyl]-pyridin-2-ylmethyl}-quinolin-3-yl-amine], the MIC50 in the series with Helicobacter pylori is ≤ 0.1 µg/mL.

The melting point is the temperature, or range, at which the solid turns liquid.
